69 molecules from PubChem BioAssay AID608 (Sanford-Burnham Center for Chemical Genomics, 2007) can be followed below.

What is called Kd is the concentration at which binding is half-saturated.

Activity calls are given as the source filed them. How the calls were made is not given here. Where only a bound is given, the exact number is not on record here.

For this assay, the target named is Peptidyl-prolyl cis-trans isomerase FKBP1A (Homo sapiens) (UniProt P62942). Put plainly: small-molecule binding to FKBP12 – biophysical, NMR detection (AID 608). As to conditions: purified FKBP12.
Sequence of Peptidyl-prolyl cis-trans isomerase FKBP1A (Homo sapiens) (P62942 whole entry, looked up): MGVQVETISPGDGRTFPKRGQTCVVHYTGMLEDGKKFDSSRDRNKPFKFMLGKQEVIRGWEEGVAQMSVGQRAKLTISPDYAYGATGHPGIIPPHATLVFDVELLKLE
Regarding `Cc1cc(=O)oc2cc(O)c(O)cc12`, the Kd was > 4 mM (inactive).

In the case of `COc1cc(-c2coc3cc(O[C@@H]4O[C@H](CO)[C@@H](O)[C@H](O)[C@H]4O)c(OC)c(O)c3c2=O)cc(O)c1OC`, the Kd is > 4 mM (inactive).

Consider `COC(=O)c1c(C)c2c(c(C)c1O)OC(=O)c1c(C)c(Cl)c(O)c(Cl)c1O2`, for which the Kd is > 4 mM (inactive).

Turning to `CC(C)C1COc2cc3oc(=O)ccc3cc2O1` (centres undefined), the Kd is > 4 mM (inactive).

Regarding `CCNC(CC(=O)Nc1ccc(O)cc1)C(=O)O` (centres undefined), the Kd was > 4 mM (inactive).

On to `CC(=O)O[C@@H]1C=C[C@@]2(C)C(C[C@@H](OC(C)=O)[C@@]3(C)C4=CC(=O)O[C@@H](c5ccoc5)[C@]4(C)CCC23)C1(C)C` (some centres undefined), for which the Kd is > 4 mM (inactive).

As to `O=C(NC1=NCCS1)c1ccc([N+](=O)[O-])cc1Cl`, the Kd is > 4 mM (inactive).

On to `OCC1COc2ccccc2O1` (centres undefined), for which the Kd was > 4 mM (inactive).

Regarding `O=C1CS/C(=N/N=C2CCCC2)N1`, the Kd is > 4 mM (inactive).

With `Cc1nn(C)c(Cl)c1C(O)c1c(C)nn(C)c1Cl`, the Kd was > 4 mM (inactive).

As for `Cc1ccc2[nH]cc(CCN)c2c1`, the Kd was > 4 mM (inactive).

Take `CSc1nnc2c(n1)OC=Nc1ccccc1-2`: the Kd is > 4 mM (inactive).

As to `COc1ccc2c(c1)OCC(Cc1ccc(OC)c(OC(C)=O)c1)C2=O` (centres undefined), the Kd was > 4 mM (inactive).

Take `CC1=[N+]([O-])C2(N)CCc3c(no[n+]3[O-])C2(O)C1` (centres undefined): the Kd was > 4 mM (inactive).

For the molecule `O=C(Nc1nncs1)Oc1ccccc1`, the Kd is > 4 mM (inactive).

Take `CC(=O)NCC1(c2ccccc2)CCOCC1`: the Kd was > 4 mM (inactive).

In the case of `CC1=C2C(=CO[C@H](C)[C@H]2C)C(=O)C(C(=O)O)=C1O`, the Kd was > 4 mM (inactive).

Consider `Cc1onc(-c2ccccc2)c1CO`, for which the Kd is > 4 mM (inactive).

For the molecule `COc1c2ccoc2c(OC)c2oc(=O)ccc12`, the Kd is > 4 mM (inactive).

Take `O=C(O)Cc1n[nH]c(=O)c2ccccc12`: the Kd is > 4 mM (inactive).

As to `O=C1C=CC(=O)N1c1ccc(N2CCOCC2)cc1`, the Kd is > 4 mM (inactive).

On to `NC(=O)CNC(=O)c1ccc2ccccc2n1`, for which the Kd is > 4 mM (inactive).

Regarding `O=C(Nc1ccc(O)cc1)N1CCOCC1`, the Kd was > 4 mM (inactive).

Consider `Cc1nc(-c2cc(C(=O)O)no2)cs1`, for which the Kd was > 4 mM (inactive).

For the molecule `Cc1cc(C)c(OCC(=O)N2CCOCC2)c(C)c1`, the Kd entry is “inactive”.

Regarding `Cc1nc(-c2cccc(C(=O)O)c2)cs1`, the Kd is > 4 mM (inactive).

On to `O=C(O)Cn1nnn(-c2ccccc2)c1=S`, for which the Kd was > 4 mM (inactive).

For `Cc1cc(=O)[nH]c2ccccc12`, the Kd is > 4 mM (inactive).

With `Cc1cc(C)nc(/N=C(/N)N2CCN(C)CC2)n1`, the Kd was > 4 mM (inactive).

Take `O=C1CCCCCN1CO`: the Kd is > 4 mM (inactive).

As for `S=c1[nH]c2cccnc2[nH]1`, the Kd is > 4 mM (inactive).

Turning to `O=C(O)CCSc1nc2ccccc2s1`, the Kd was > 4 mM (inactive).

In the case of `CSc1nc(-c2ccccc2)ccc1C(N)=O`, the Kd was > 4 mM (inactive).

As for `Cc1ccc(-c2c(C)n([O-])c3c([n+]2=O)CCCC3)o1`, the Kd is > 4 mM (inactive).

Consider `COc1ccc(Cl)cc1-c1n[nH]c(=S)n1C`, for which the Kd was > 4 mM (inactive).

On to `O=C(O)C1C(=O)NCC1c1ccccc1` (centres undefined), for which the Kd is > 4 mM (inactive).

For `O=C(Nc1nnc(-c2ccncc2)o1)c1cccs1`, the Kd is > 4 mM (inactive).

As for `NC(c1ccccc1)c1ccccn1` (centres undefined), the Kd was > 4 mM (inactive).

In the case of `NC(=O)C1CCN(C2CC(=O)NC2=O)CC1` (centres undefined), the Kd was > 4 mM (inactive).

Take `CC(=O)c1cccc(NC(=O)NN2CCOCC2)c1`: the Kd was > 4 mM (inactive).

For `NC(=O)c1ccc(C(N)=O)cc1`, the Kd is > 4 mM (inactive).

As for `Nc1ccc2c(c1)N1CCN=C1S2`, the Kd was > 4 mM (inactive).

As for `Nc1ncnc(Cl)c1[N+](=O)[O-]`, the Kd is > 4 mM (inactive).

On to `Oc1cc(O)c2c(c1)O[C@H](c1cc(O)c(O)c(O)c1)[C@H](O)C2`, for which the Kd is > 4 mM (inactive).

`Cc1ccc(OCC(=O)N2CCOCC2)c(C)c1`: the Kd result is “inactive”.

With `COc1ccc(-c2cc3nc4n(c(=O)c3s2)CCC4)cc1`, the Kd was > 4 mM (inactive).

Take `O=C1C[C@@H](c2ccc(O)cc2)Oc2cc(O)cc(O)c21`: the Kd was > 4 mM (inactive).

Consider `O=C(O)C1CCN(S(=O)(=O)c2cccs2)CC1`, for which the Kd was > 4 mM (inactive).

As for `O=C(O)c1ccc(-n2cccn2)cc1`, the Kd was > 4 mM (inactive).

With `CCOc1ccc(C)cc1S(=O)(=O)n1ccc(C)n1`, the Kd is > 4 mM (inactive).

Turning to `CC(=O)Nc1ccc(C(=O)N2CCOCC2)cc1Cl`, the Kd was > 4 mM (inactive).

For `OCc1ccc(Oc2ccccc2)nc1`, the Kd is > 4 mM (inactive).

As to `Cc1oc(-c2ccccc2)nc1CCO`, the Kd was > 4 mM (inactive).

In the case of `Cc1cc(C)n(C2CCS(=O)(=O)C2)n1` (centres undefined), the Kd is > 4 mM (inactive).

Turning to `CSc1ccc(S(=O)(=O)N2CCCC2)cc1`, the Kd is > 4 mM (inactive).

In the case of `COc1ccc(-c2cn[nH]c2N)c(OC)c1`, the Kd was > 4 mM (inactive).

For the molecule `CCNCC(O)c1ccc([N+](=O)[O-])cc1` (centres undefined), the Kd is > 4 mM (inactive).

With `CC(C)=CCCC1(C)C=Cc2c(O)c3c(c(CC=C(C)C)c2O1)OC12C(=CC4CC1C(C)(C)OC2(C/C=C(/C)C(=O)O)C4=O)C3=O` (centres undefined), the Kd is > 4 mM (inactive).

`CSc1ccccc1NC(=O)Cn1c(-c2cscn2)nc2ccccc21`: the Kd is > 4 mM (inactive).

As to `c1cncc(Nc2nc(-c3cccnc3)cs2)c1`, the Kd was > 4 mM (inactive).

In the case of `CCSc1nc(N)c(NC(=O)c2ccco2)c(=O)[nH]1`, the Kd is > 4 mM (inactive).

For the molecule `COc1cc([C@@H]2c3cc4c(cc3[C@H](OC(C)=O)[C@H]3COC(=O)[C@@H]23)OCO4)cc(OC)c1OC`, the Kd is > 4 mM (inactive).

For the molecule `O=C(c1nc2ncccn2n1)N1CCc2ccccc2C1`, the Kd was > 4 mM (inactive).

In the case of `COC(=O)c1ccc(NC(=O)CC2NCCNC2=O)cc1` (centres undefined), the Kd was > 4 mM (inactive).

`O=C1CCCC2C3CC(CN12)[C@@H]1CCCCN1C3` (some centres undefined): the Kd is > 4 mM (inactive).

Take `CC(CCC(=O)O)[C@H]1CCC2C3CC[C@@H]4C[C@H](O)CC[C@]4(C)C3CC[C@@]21C` (some centres undefined): the Kd is > 4 mM (inactive).

For `NC(=O)c1cccc2c(=O)oc3ccccc3c12`, the Kd is > 4 mM (inactive).

With `Cc1[nH]c2ccccc2c1Cc1n[nH]c(=S)n1C`, the Kd was > 4 mM (inactive).

In the case of `N#CCSc1nc(-c2ccccc2)cs1`, the Kd is > 4 mM (inactive).
